Assay results reported in publication PMC12040169 (PLOS Biology, 2025).

Experiment: in vitro
Conditions: human, hela cells

| SMILES | viability at 28.5 h, 10 µM (% viability) [%] | viability at 28.5 h, 10 µM [%] |
| --- | --- | --- |
| C/C(Cl)=C\CN1C(=O)C(=O)c2cc(C)ccc21 [CBK087601] | 92.3 |  |
| COc1ccc(C(=O)c2c(N)c(C(=O)Nc3ccccc3)c3ccccn23)cc1 [CBK300509] | 92.6 |  |
| CCOC(=O)c1ccc(NC(=O)N2CCC3(CC2)NC(=O)Cc2ccccc23)cc1 [CBK047362] | 107 |  |
| COc1ccc(/C=N/NC(=O)c2ccc(CN3CCOCC3)cc2)cc1[N+](=O)[O-] [CBK262708] | 93 |  |
| CCN1CCN(C(=O)CN(Cc2ccccc2)S(=O)(=O)c2c(C)cc(C)cc2C)CC1 [CBK266670] | 98.1 |  |
| CN1CCN(C(=O)CNS(=O)(=O)c2ccc3ccccc3c2)CC1 [CBK042205] | 99.3 |  |
| Cc1cc(/C=C2/NC(=O)NC2=O)c(C)n1-c1ccc(S(N)(=O)=O)cc1 [CBK264747] | 106 |  |
| COc1ccc(C2C(C(C)=O)=C(O)C(=O)N2CCCC(=O)O)cc1 (stereo not drawn) [CBK263774] | 100 |  |
| CN(C)c1ccc(-c2nccnc2NS(=O)(=O)c2ccc3ccccc3c2)cc1 [CBK050794] | 93.4 |  |
| CCOc1ccc(-c2n[nH]c(C)c2-c2ccc(OC)c(OC)c2)c(O)c1 [CBK288106] | 102 |  |
| COCCN(Cc1cnn(C)c1)C(=O)Nc1cccc2nc(C)ccc12 [CBK306529] | 106 |  |
| Cc1cccc(OCCn2c(CCNC=O)nc3ccccc32)c1C [CBK269539] | 104 |  |
| Cc1ccc(C2=NN(C(=O)CCC(=O)O)C(c3ccc4nccnc4c3)C2)cc1 (stereo not drawn) [CBK287802] | 109 |  |
| Cn1c(=O)c2cnc(-c3ccccc3Cl)nc2n(C)c1=O [CBK291219] | 85.7 |  |
| COC(=O)c1cc(NC(=O)c2cc(-c3ccc(C)o3)nc3ccccc23)cc(C(=O)OC)c1 [CBK265400] | 86.3 |  |
| COc1ccc(NC2c3cccc4cccc(c34)C2NS(=O)(=O)c2ccccc2)cc1 (stereo not drawn) [CBK264075] | 97.4 |  |
| COc1ccc([C@]23CN(C)C[C@H]2CCN(C(=O)Nc2cccc(Cl)c2)C3)cc1OC [CBK075104T] | 112 |  |
| C=CCSc1nnc(OC(=O)N(C)C)n1-c1ccc(Cl)cc1 [CBK004817] |  | 90.8 |
| CCCn1ccnc1-c1cn(Cc2cc(C(C)(C)C)n[nH]2)nn1 [CBK306791] | 118 |  |
| O=C(c1ccccc1)C(Sc1nnc2sc3ccccc3n12)c1ccccc1 (stereo not drawn) [CBK265416] | 84.2 |  |
| O=C1C2CCCCC2C(=O)N1CCCN1CCC(c2nc(-c3ccc(F)cc3)c3ccccn23)CC1 (stereo not drawn) [CBK035972] | 90.1 |  |
| Cc1cc(=O)oc2cc(Sc3ccc([N+](=O)[O-])cc3)ccc12 [CBK002954] | 95.7 |  |

| SMILES | viability at 28.5 h, 10 µM (% viability) [%] | viability at 28.5 h, 10 µM [%] |
| --- | --- | --- |
| O=C(Cn1nnc2ccccc21)NC(c1ccccc1)c1ccccc1 [CBK297488] | 110 |  |
| O=C(c1nccs1)C1CCN(C(=O)c2ccccc2F)CC1 [CBK284174] | 93.3 |  |
| CC(=O)N1C[C@@H]2CCCCN(CCOc3ccccc3)[C@@H]2C1 [CBK285494] | 107 |  |
| Cc1cc(-c2cnoc2C2CCCN(C(=O)c3cccs3)C2)on1 (stereo not drawn) [CBK284480] | 102 |  |
| COc1ccc(Br)cc1S(=O)(=O)NCCCN1CCOCC1 [CBK264050] | 103 |  |
| COC(=O)c1ccsc1NS(=O)(=O)c1ccc(C)c([N+](=O)[O-])c1 [CBK039061] | 92.2 |  |
| NS(=O)(=O)c1ccc(NC(=S)NC(=O)c2ccc(Cl)cc2Cl)cc1 [CBK266265] | 94 |  |
| CCC(O)Cn1nc(CCSC)nc1-c1ccc2[nH]ccc2c1 (stereo not drawn) [CBK307526] | 104 |  |
| CC(Sc1nnc(-c2ccc(Cl)cc2)n1CC(=O)O)C(=O)Nc1ccnn1C(C)C (stereo not drawn) [CBK296970] | 96.9 |  |
| CC(Nc1ncnc2c1cnn2C)c1ccccc1 (stereo not drawn) [CBK288093] | 106 |  |
| CCC1CCCCN1C(=O)c1cccc(C(=O)OC)c1 (stereo not drawn) [CBK083195] | 109 |  |
| Cc1ccc2c(c1)C(NC(=O)C1CCN(S(C)(=O)=O)CC1)CC(C)(C)O2 (stereo not drawn) [CBK307604] | 109 |  |
| O=C(NCCNc1ccc([N+](=O)[O-])cc1Cl)c1ccccc1Cl [CBK263541] | 112 |  |
| CCCCCn1c(=O)c(C(=O)Nc2cccc(O)c2)c(O)c2ccccc21 [CBK291189] | 111 |  |
| CCOC(=O)c1sc(-c2cccc(C)n2)nc1O [CBK081083] | 84.5 |  |
| Nc1nc2c(s1)c(O)nc(=O)n2Cc1ccccc1 [CBK291257] | 88.6 |  |
| CN(C)c1cc(=O)c2cc3c(cc2o1)CCC3 [CBK010017] | 67.2 |  |
| CC(C)C(=O)NC(C)c1nc(-c2ccncc2)n[nH]1 (stereo not drawn) [CBK104021] | 113 |  |
| Cc1nnc(SCC(=O)N2CCN(c3ccc(Cl)cc3)CC2)s1 [CBK307389] | 87.5 |  |
| CCC(c1nc2ccccc2c(=O)n1-c1cccnc1)N1C(=O)c2ccccc2C1=O (stereo not drawn) [CBK268300] | 99.1 |  |
| CC(=O)Nc1ccc(Oc2cc(C)nc(C3CCCNC3)c2)cc1 (stereo not drawn) [CBK283443] | 88.1 |  |
| Cc1ccc(C)c2[nH]c(=O)c(CN(CCN3CCOCC3)Cc3nnnn3Cc3ccccc3)cc12 [CBK108063] | 93.1 |  |

| SMILES | viability at 28.5 h, 10 µM (% viability) [%] | viability at 28.5 h, 10 µM [%] |
| --- | --- | --- |
| NS(=O)(=O)c1ccc(CCNC=C2C(=O)c3ccccc3C2=O)cc1 [CBK262997] | 99 |  |
| CSCCN1CCN(c2nccnc2OC2CCCCC2)CC1 [CBK082843T] | 108 |  |
| COc1ccc(CC(=O)NNC(=O)c2ccc(C(C)(C)C)cc2)cc1 [CBK261700] | 92.5 |  |
| O=C(c1cccs1)N(Cc1ccco1)Cc1cc2ccccc2[nH]c1=O [CBK269602] | 104 |  |
| Cc1nnc2ccc(N3CCN(Cc4cscn4)CC3)nn12 [CBK304910] | 101 |  |
| CCc1cc(C(=O)OC)c(NC(=O)CC2NCCNC2=O)s1 (stereo not drawn) [CBK266990] | 97.6 |  |
| CC(C)n1c(=O)n(CC(=O)NCc2cccs2)c2cccnc21 [CBK283699] | 88.6 |  |
| Cc1ccc(S(=O)(=O)N(C)CCCC(=O)n2cnc3ccccc32)cc1 [CBK264457] | 104 |  |
| Cc1nn(C(C)C)c(C)c1CN(Cc1ccccn1)Cc1ccco1 [CBK283221] | 114 |  |
| O=C(Nc1ccc(OCc2ccccc2F)cc1)c1ccc(-n2cnnc2)cc1 [CBK285816] | 81.4 |  |
| Cc1ccc(C2(c3ccc(C)cc3)CC2C(=O)Nc2ccccc2[N+](=O)[O-])cc1 (stereo not drawn) [CBK263591] | 93.3 |  |
| COc1cncc(-c2cc(Nc3cccc(OC)c3OC)ncn2)c1 [CBK090728] | 97.8 |  |
| Cc1ccc(Cn2cnc3c(cnn3-c3ccc(C)c(C)c3)c2=O)cc1 [CBK287540] | 108 |  |
| COC(=O)COc1ccc(C(NC(=O)c2ccccc2)C(Cl)(Cl)Cl)cc1 (stereo not drawn) [CBK265437] | 97.8 |  |
| COc1ccc(CCNS(=O)(=O)N(C)C)cc1 [CBK264348] | 93 |  |
| Cc1nc(SCC(=O)NC(C)c2cccnc2)oc1C (stereo not drawn) [CBK282198] | 93.2 |  |
| CC(=O)Nc1ccc(C(=O)N(Cc2ccccn2)CC2CCCO2)cn1 (stereo not drawn) [CBK306784] | 83.7 |  |
| COc1cc(C2C3=C(CC(C)(C)CC3=O)OC3=C2C(=O)CC(C)(C)C3)ccc1OCC(=O)O [CBK262379] | 94.8 |  |
| CCNc1nccnc1-c1ccc(O)cc1 [CBK088589] | 108 |  |
| CCN(CC)CC1CCCN(C(=O)Cn2ccc3ccc(F)cc32)C1 (stereo not drawn) [CBK282146] | 87.8 |  |
| CN1CCC(=NNC(=O)CN(c2cccc(Cl)c2)S(=O)(=O)c2ccccc2)CC1 [CBK262489] | 98 |  |
| C=CCNCc1cc2c(C)nn(-c3ccc(F)cc3)c2[nH]c1=O [CBK283117] | 111 |  |

| SMILES | viability at 28.5 h, 10 µM (% viability) [%] | viability at 28.5 h, 10 µM [%] |
| --- | --- | --- |
| O=C(O)CC(c1ccncc1)c1c[nH]c2ccccc12 (stereo not drawn) [CBK286913] | 90.9 |  |
| O=C(NCCCc1ccccc1Cl)c1ccc(=O)n(CC(=O)N2CCCCC2)c1 [CBK286078] | 85.9 |  |
| COc1ccc(S(=O)(=O)NC(C)C(=O)NCc2ccncc2)cc1C (stereo not drawn) [CBK269347] | 101 |  |
| COc1ccc(C=Cc2cc(C(=O)O)c3ccccc3n2)cc1OC(F)F [CBK296953] | 85.9 |  |
| CC(C)N1CCC(C(=O)NC(=O)NCCc2ccc3c(c2)OCO3)CC1 [CBK034804] | 96.6 |  |
| CCCCSc1nnc(-c2cc3c(C(F)(F)F)nn(C)c3s2)n1C [CBK019526] | 97.5 |  |
| CC(C)[C@H]1CN(Cc2ccccc2F)CCN1C(=O)Cn1ncc2ccccc2c1=O [CBK286172] | 82.2 |  |
| NS(=O)(=O)c1ccc(CCNC(=O)c2ccc(-c3ccccc3)nc2NCCc2ccccn2)cc1 [CBK076616] | 111 |  |
| CC1(C)C(=O)Nc2ccccc2N1C(=O)COc1ncnc2sc3c(c12)CCC3 [CBK297530] | 89.9 |  |
| CCn1c(C)nnc1SCCNC(=O)c1cnc(N(C)C)nc1C [CBK307135] | 93 |  |
| CCCS(=O)(=O)NC[C@H]1C[C@@H]2CCN1C[C@@H]2c1cc(-c2ccccc2)nn1C [CBK289095] | 93.8 |  |
| O=C(NCCc1ccccc1)N(Cc1ccc(-c2ccccc2)cc1)CC1CCNCC1 [CBK049792] | 106 |  |
| Cc1cccc(-c2ccc(CC3(C(N)=O)CCN(C(=O)CCc4ccccc4)CC3)cc2)c1 [CBK285796] | 110 |  |
| CCOc1cc(C=Cc2cc(C(=O)O)c3ccccc3n2)ccc1OC(F)F [CBK296952] | 86.3 |  |
| CCS(=O)(=O)N1CCC(c2onc3c2CCCCC3)CC1 [CBK284497] | 93.5 |  |
| COc1ccc(CCCC(=O)Nc2ccc(N3CCNCC3)c3ccccc23)cc1OC [CBK028406T] | 105 |  |
| COc1ccc(CN(CCN(C)C)C(=O)NCc2ccc(-c3ccccc3)cc2)cc1OC [CBK159293] | 91.4 |  |
| CC(C)(C)C1CCc2c(sc(NC(=S)NC(=O)c3cc4ccccc4o3)c2C(N)=O)C1 (stereo not drawn) [CBK268635] | 95 |  |
| Cc1nc2sccn2c1CN1CCc2sccc2C1C (stereo not drawn) [CBK282807] | 92.4 |  |
| CC1(C)CN=C(N2CCN(c3c4c(c(C#N)c5nc6ccccc6n35)CCC4)CC2)S1 [CBK263113] | 103 |  |
| CC(C)Cc1ccc(-c2cc(NCCc3ccccn3)ncn2)cc1 [CBK091088] | 99.6 |  |
